Patent publication US6514946B1, “Macrolide antibiotics and treatment and prophylaxis of pasteurellosis using the same” (Zaidan Hojin Biseibutsu Kagaku Kenkyu Kai, priority 1999, dated 2003)
In brackets after ≈: the same amount, converted by molar mass.

Tests used:
[1] = tested on: Staphylococcus aureus 193; assay: Minimum inhibition concentration (MIC), agar double dilution method; type: cell-based; details: Mueller hinton agar
Description: (§1) Test 1; Minimum Inhibition Concentration (MIC)
(§2) MIC was measured, based on the standard method of Japan Society of Chemotherapy, on a BHI agar medium (Brain heart-infusion agar, made by Difco Laboratories Inc.(USA)) with respect to Pasteurella and on a Mueller hinton agar medium (Mueller hinton agar, made by Difco, Laboratories Inc.(USA)) with respect to the other test bacteria in both cases according to the double dilution method.

[2] = tested on: Enterobacter aerogenes ATCC13048; assay: as above; type: cell-based; details: Mueller hinton agar
Description: as §1, §2

[3] = tested on: Klebsiella pneumoniae PCI602; assay: as above; type: cell-based; details: Mueller hinton agar
Description: as §1, §2

[4] = tested on: Pasteurella haemolytica BBPO101 N791; assay: as above; type: cell-based; details: Pasteurella haemolytica BBPO101 N791, strain from cattle; BHI agar
Description: as §1, §2

[5] = tested on: Shigella dysenteriae JS11910; assay: as above; type: cell-based; details: Shigella dysenteriae JS11910; Mueller hinton agar
Description: as §1, §2

[6] = tested on: Bacillus subtilis NRRL B-558; assay: as above; type: cell-based; details: Bacillus subtilis NRRL B-558; Mueller hinton agar
Description: as §1, §2

[7] = tested on: Serratia marcescens; assay: as above; type: cell-based; details: Mueller hinton agar
Description: as §1, §2

[8] = tested on: Micrococcus luteus PCI1001; assay: as above; type: cell-based; details: Mueller hinton agar
Description: as §1, §2

[9] = tested on: Escherichia coli NIHJ; assay: as above; type: cell-based; details: Mueller hinton agar
Description: as §1, §2

[10] = tested on: Salmonella enteritidis 1891; assay: as above; type: cell-based; details: Mueller hinton agar
Description: as §1, §2

[11] = tested on: Proteus vulgaris OX19; assay: as above; type: cell-based; details: Mueller hinton agar
Description: as §1, §2

[12] = tested on: S. aureus FDA209P; assay: as above; type: cell-based, Staphylococcus aureus; details: Mueller hinton agar
Description: as §1, §2

[13] = tested on: Past haemolytica BAPO103 S801; assay: as above; type: cell-based, Pasteurella haemolytica; details: Past haemolytica BAPO103 S801, strain from poultry; BHI agar
Description: as §1, §2

[14] = tested on: Past haemolytica BBPO102 N811; assay: as above; type: cell-based, Pasteurella haemolytica; details: Past haemolytica BBPO102 N811, strain from cattle; BHI agar
Description: as §1, §2

[15] = tested on: Past. multocida BOPO305 M-17; assay: as above; type: cell-based, Pasteurella multocida; details: Past. multocida BOPO305 M-17, strain from a sheep; BHI agar
Description: as §1, §2

[16] = tested on: Past. multocida BSPO302 No. 6; assay: as above; type: cell-based, Pasteurella multocida; details: Past. multocida BSPO302 No. 6, strain from a pig; BHI agar
Description: as §1, §2

[17] = tested on: S. aureus Smith (virulent strain); assay: microbe, parasite or virus in culture; type: cell-based, Staphylococcus aureus; details: S. aureus Smith (virulent strain); Mueller hinton agar
Description: as §1, §2

[18] = tested on: E. coli K-12 R-5; assay: Minimum inhibition concentration (MIC), agar double dilution method; type: cell-based, Escherichia coli; details: Mueller hinton agar
Description: as §1, §2

[19] = tested on: ICR mice; assay: Toxicity test, intravenous or subcutaneous injection; type: in vivo
[20] = intravenous injection, 0.25 mg/mouse
[21] = intravenous injection, 0.5 mg/mouse
[22] = intravenous injection, 1.5 mg/mouse
[23] = intravenous injection, 2.0 mg/mouse
[24] = subcutaneous injection, 1.0 mg/mouse
[25] = subcutaneous injection, 2.0 mg/mouse
[26] = subcutaneous injection, 3.0 mg/mouse
[27] = subcutaneous injection, 4.0 mg/mouse

Row | Structure (SMILES) | MIC [1] [µg/mL] | MIC [2] [µg/mL] | MIC [3] [µg/mL] | MIC [4] [µg/mL] | MIC [5] [µg/mL] | MIC [6] [µg/mL] | MIC [7] [µg/mL] | MIC [8] [µg/mL] | MIC [9] [µg/mL] | MIC [10] [µg/mL] | MIC [11] [µg/mL] | MIC [12] [µg/mL] | MIC [13] [µg/mL] | MIC [14] [µg/mL] | MIC [15] [µg/mL] | MIC [16] [µg/mL] | MIC [17] [µg/mL] | MIC [18] [µg/mL] | other results
1 | CC[C@H]1OC(=O)C[C@@H](O)[C@H](C)[C@@H](O[C@@H]2O[C@H](C)C(O)C(N(C)C)C2O)[C@@H](CCN(C)C)C[C@@H](C)C(=O)/C=C/C(C)=C/[C@@H]1CN(C)C (stereo partly drawn) [Compound C-1] | 50 (≈ 76.5 µM) | 50 (≈ 76.5 µM) | 25 (≈ 38.2 µM) | 6.25 (≈ 9.56 µM) | 50 (≈ 76.5 µM) | 100 (≈ 153 µM) | >100 | 3.13 (≈ 4.79 µM) | 12.5 (≈ 19.1 µM) | 6.25 (≈ 9.56 µM) | 100 (≈ 153 µM) | 50 (≈ 76.5 µM) | 50 (≈ 76.5 µM) | 6.25 (≈ 9.56 µM) | 6.25 (≈ 9.56 µM) | 12.5 (≈ 19.1 µM) | 100 (≈ 153 µM) | >100 | –
2 | CC[C@H]1OC(=O)C[C@@H](O)[C@H](C)[C@@H](O[C@@H]2O[C@H](C)C(O)C(N(C)C)C2O)[C@@H](CCN(C)Cc2ccccc2)C[C@@H](C)C(=O)/C=C/C(C)=C/[C@@H]1CN(C)Cc1ccccc1 (stereo partly drawn) [Compound C-4] | 0.39 (≈ 0.484 µM) | 12.5 (≈ 15.5 µM) | 6.25 (≈ 7.75 µM) | 0.39 (≈ 0.484 µM) | 3.13 (≈ 3.88 µM) | – | 100 (≈ 124 µM) | 0.20 (≈ 0.248 µM) | 6.25 (≈ 7.75 µM) | 1.56 (≈ 1.94 µM) | 12.5 (≈ 15.5 µM) | 0.39 (≈ 0.484 µM) | 6.25 (≈ 7.75 µM) | 0.39 (≈ 0.484 µM) | 0.76 (≈ 0.943 µM) | 1.56 (≈ 1.94 µM) | 6.25 (≈ 7.75 µM) | >100 | –
3 | CC[C@H]1OC(=O)C[C@@H](O)[C@H](C)[C@@H](O[C@@H]2O[C@H](C)C(O)C(N(C)C)C2O)[C@@H](CCN2CCC(C)CC2)C[C@@H](C)C(=O)/C=C/C(C)=C/[C@@H]1CN1CCC(C)CC1 (stereo partly drawn) [MP-MT] | 1.56 (≈ 2.05 µM) | 12.5 (≈ 16.4 µM) | 3.13 (≈ 4.11 µM) | 0.39 (≈ 0.512 µM) | 6.25 (≈ 8.2 µM) | 25 (≈ 32.8 µM) | 50 (≈ 65.6 µM) | 0.78 (≈ 1.02 µM) | – | 3.13 (≈ 4.11 µM) | 12.5 (≈ 16.4 µM) | 1.56 (≈ 2.05 µM) | 3.13 (≈ 4.11 µM) | 0.39 (≈ 0.512 µM) | 0.39 (≈ 0.512 µM) | 0.39 (≈ 0.512 µM) | – | >100 | –
4 | CC[C@H]1OC(=O)C[C@@H](O)[C@H](C)[C@@H](O[C@@H]2O[C@H](C)C(O)C(N(C)C)C2O)[C@@H](CCN2CCCC2)C[C@@H](C)C(=O)/C=C/C(C)=C/[C@@H]1CN1CCCC1 (stereo partly drawn) [Compound C-6] | 25 (≈ 35.4 µM) | 50 (≈ 70.8 µM) | – | 1.56 (≈ 2.21 µM) | 12.5 (≈ 17.7 µM) | 50 (≈ 70.8 µM) | 100 (≈ 142 µM) | 1.56 (≈ 2.21 µM) | 6.25 (≈ 8.85 µM) | 3.13 (≈ 4.43 µM) | – | – | 25 (≈ 35.4 µM) | 1.56 (≈ 2.21 µM) | 3.13 (≈ 4.43 µM) | 6.25 (≈ 8.85 µM) | 25 (≈ 35.4 µM) | >100 | –
5 | CC[C@H]1OC(=O)C[C@@H](O)[C@H](C)[C@@H](O[C@@H]2O[C@H](C)C(O)C(N(C)C)C2O)[C@@H](CCN2CC(C)CC(C)C2)C[C@@H](C)C(=O)/C=C/C(C)=C/[C@@H]1CN1CC(C)CC(C)C1 (stereo partly drawn) [DMP-MT] | 3.13 (≈ 3.96 µM) | 25 (≈ 31.6 µM) | 6.25 (≈ 7.91 µM) | 0.39 (≈ 0.494 µM) | 12.5 (≈ 15.8 µM) | – | 100 (≈ 127 µM) | 1.56 (≈ 1.97 µM) | 6.25 (≈ 7.91 µM) | 3.13 (≈ 3.96 µM) | 25 (≈ 31.6 µM) | 1.56 (≈ 1.97 µM) | 1.56 (≈ 1.97 µM) | 0.39 (≈ 0.494 µM) | 0.39 (≈ 0.494 µM) | 0.78 (≈ 0.987 µM) | 6.25 (≈ 7.91 µM) | >100 | –
6 | CC[C@H]1OC(=O)C[C@@H](O)[C@H](C)[C@@H](O[C@@H]2O[C@H](C)C(O)C(N(C)C)C2O)[C@@H](CCN2CCCCCC2)C[C@@H](C)C(=O)/C=C/C(C)=C/[C@@H]1CN1CCCCCC1 (stereo partly drawn) [Compound C-7] | – | 3.13 (≈ 4.11 µM) | 0.78 (≈ 1.02 µM) | 0.20 (≈ 0.262 µM) | 1.56 (≈ 2.05 µM) | 6.25 (≈ 8.2 µM) | 12.5 (≈ 16.4 µM) | 0.20 (≈ 0.262 µM) | – | 0.78 (≈ 1.02 µM) | 3.13 (≈ 4.11 µM) | – | – | 0.20 (≈ 0.262 µM) | 0.10 (≈ 0.131 µM) | 0.39 (≈ 0.512 µM) | 3.13 (≈ 4.11 µM) | 25 (≈ 32.8 µM) | Dissection finding [19, 20]: no abnormal finding; Surviving number [19, 20]: 2/2; Dissection finding [19, 21]: no abnormal finding; Surviving number [19, 21]: 1/2 (immediate death); Dissection finding [19, 22]: no abnormal finding; Surviving number [19, 22]: 0/2 (immediate death); Dissection finding [19, 23]: no abnormal finding; Surviving number [19, 23]: 0/2 (immediate death); Dissection finding [19, 24]: no abnormal finding; Surviving number / number of used animals [19, 24]: 2/2; Dissection finding [19, 25]: no abnormal finding; Surviving number / number of used animals [19, 25]: 2/2; Dissection finding [19, 26]: a little decoloring in kidney; Surviving number / number of used animals [19, 26]: 2/2; Dissection finding [19, 27]: no abnormal finding; Surviving number / number of used animals [19, 27]: 0/1 (died after 30 minutes)
7 | CC[C@H]1OC(=O)C[C@@H](O)[C@H](C)[C@@H](O[C@@H]2O[C@H](C)C(O)C(N(C)C)C2O)[C@@H](CCN(C)C2CCCCC2)C[C@@H](C)C(=O)/C=C/C(C)=C/[C@@H]1CN(C)C1CCCCC1 (stereo partly drawn) [Compound C-3] | 1.56 (≈ 1.97 µM) | 12.5 (≈ 15.8 µM) | 3.13 (≈ 3.96 µM) | 0.39 (≈ 0.494 µM) | 6.25 (≈ 7.91 µM) | 3.13 (≈ 3.96 µM) | 50 (≈ 63.3 µM) | 0.78 (≈ 0.987 µM) | 3.13 (≈ 3.96 µM) | 1.56 (≈ 1.97 µM) | 12.5 (≈ 15.8 µM) | 1.56 (≈ 1.97 µM) | – | 0.78 (≈ 0.987 µM) | 1.56 (≈ 1.97 µM) | 1.56 (≈ 1.97 µM) | 3.13 (≈ 3.96 µM) | – | –
